# Measured values from US8481750B2 (Boehringer Ingelheim International GmbH, priority 2009, dated 2013).
# pIC50: −log10 of the molar value.
# Target: LFA-1 binding to ICAM-1 (Homo sapiens, UniProt P05107+P20701)
# Assay: Inhibition of LFA-1 binding to ICAM-1 (LFA-1/Biotin-sICAM-1 AlphaScreen molecular assay)
# Details: highest compound concentration 1 μM in 1% DMSO, 37° C., 90 minutes
# Procedure, shortened: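 AlphaScreen binding of purified LFA-1 to biotinylated sICAM-1 in DPBS with Ca/Mg, 2 mM MgCl2, 0.1% BSA, pH 7.1; compound top concentration 1 μM in 1% DMSO, 90 min at 37 °C. Detection with TS2/4 anti-LFA-1 acceptor beads (10 μg/mL final) and streptavidin donor beads (15 μg/mL final), room temperature in the dark.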
# Sequence of LFA-1 binding to ICAM-1 (P20701 26-1170): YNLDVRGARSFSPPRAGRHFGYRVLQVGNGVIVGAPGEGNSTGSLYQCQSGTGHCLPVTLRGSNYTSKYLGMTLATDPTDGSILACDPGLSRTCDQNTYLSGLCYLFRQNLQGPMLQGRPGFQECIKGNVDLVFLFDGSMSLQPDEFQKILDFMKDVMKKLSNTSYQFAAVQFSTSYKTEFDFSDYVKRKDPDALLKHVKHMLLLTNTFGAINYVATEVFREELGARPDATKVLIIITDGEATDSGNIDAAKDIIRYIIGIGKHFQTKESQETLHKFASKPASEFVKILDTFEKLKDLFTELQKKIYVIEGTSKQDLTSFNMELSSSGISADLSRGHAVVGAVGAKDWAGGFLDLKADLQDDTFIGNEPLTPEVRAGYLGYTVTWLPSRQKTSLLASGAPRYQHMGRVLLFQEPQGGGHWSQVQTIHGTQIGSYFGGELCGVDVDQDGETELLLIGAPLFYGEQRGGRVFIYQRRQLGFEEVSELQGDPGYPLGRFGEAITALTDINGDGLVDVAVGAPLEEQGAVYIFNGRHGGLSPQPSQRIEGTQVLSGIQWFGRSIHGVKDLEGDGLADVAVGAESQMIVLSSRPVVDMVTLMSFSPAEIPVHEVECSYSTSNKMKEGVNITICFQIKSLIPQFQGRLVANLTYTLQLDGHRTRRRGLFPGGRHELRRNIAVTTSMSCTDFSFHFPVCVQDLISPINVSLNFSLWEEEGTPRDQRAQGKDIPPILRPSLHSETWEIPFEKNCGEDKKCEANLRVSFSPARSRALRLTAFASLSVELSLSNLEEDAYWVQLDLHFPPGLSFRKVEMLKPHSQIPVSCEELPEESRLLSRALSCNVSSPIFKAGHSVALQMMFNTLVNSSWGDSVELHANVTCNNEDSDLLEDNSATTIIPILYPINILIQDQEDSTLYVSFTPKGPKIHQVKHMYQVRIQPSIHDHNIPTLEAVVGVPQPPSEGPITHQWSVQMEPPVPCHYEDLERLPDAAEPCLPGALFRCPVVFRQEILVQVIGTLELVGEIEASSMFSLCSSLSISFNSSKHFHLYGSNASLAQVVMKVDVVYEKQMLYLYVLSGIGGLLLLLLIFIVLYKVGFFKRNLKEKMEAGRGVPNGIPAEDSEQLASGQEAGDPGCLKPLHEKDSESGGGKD
# Sequence of LFA-1 binding to ICAM-1 (P05107 23-769): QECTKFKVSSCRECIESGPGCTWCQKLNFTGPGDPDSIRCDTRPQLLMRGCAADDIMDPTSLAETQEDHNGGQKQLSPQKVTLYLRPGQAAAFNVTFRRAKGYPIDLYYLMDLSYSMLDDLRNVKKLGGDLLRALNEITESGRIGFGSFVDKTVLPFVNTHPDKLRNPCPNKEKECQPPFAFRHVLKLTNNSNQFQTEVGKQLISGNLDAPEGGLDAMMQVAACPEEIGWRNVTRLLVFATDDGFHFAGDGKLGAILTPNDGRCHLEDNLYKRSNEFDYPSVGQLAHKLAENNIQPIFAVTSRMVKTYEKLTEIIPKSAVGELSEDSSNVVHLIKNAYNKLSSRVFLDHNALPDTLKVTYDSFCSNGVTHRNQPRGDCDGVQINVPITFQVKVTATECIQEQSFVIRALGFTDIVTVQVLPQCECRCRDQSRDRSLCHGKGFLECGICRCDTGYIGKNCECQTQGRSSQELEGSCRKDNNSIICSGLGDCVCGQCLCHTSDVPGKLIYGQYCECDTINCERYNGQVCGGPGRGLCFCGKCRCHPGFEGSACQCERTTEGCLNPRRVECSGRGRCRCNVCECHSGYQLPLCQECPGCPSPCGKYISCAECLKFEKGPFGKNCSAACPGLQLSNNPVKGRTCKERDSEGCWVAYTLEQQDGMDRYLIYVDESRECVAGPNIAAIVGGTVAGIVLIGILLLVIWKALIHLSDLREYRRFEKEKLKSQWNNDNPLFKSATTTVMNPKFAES
row,pIC50,Structure (SMILES)
1,9.00,CC(NC(=O)c1ccnc(C2(NC(=O)C3(NC(=O)c4cnc5n4[C@](C)(Cc4ccc(C#N)cc4)C(=O)N5c4cc(Cl)cc(Cl)c4)CC3)CC2)c1)c1cccnc1 (stereo partly drawn) [compound 139]
2,8.82,CNC(=O)c1ccc(C2(NC(=O)C3(NC(=O)c4cnc5n4[C@](C)(Cc4ccc(C#N)cc4)C(=O)N5c4cc(Cl)cc(Cl)c4)CC3)CC2)nc1 [compound 140]
3,9.28,C[C@@]1(Cc2ccc(C#N)cc2)C(=O)N(c2cc(Cl)cc(Cl)c2)c2ncc(C(=O)NC3(C(=O)NC4(c5cccc(C(=O)N6CC[C@H](O)C6)n5)CC4)CC3)n21 [compound 143]
4,9.47,C[C@@]1(Cc2ccc(C#N)cc2)C(=O)N(c2cc(Cl)cc(Cl)c2)c2ncc(C(=O)NC3(C(=O)NC4(c5cc(C(=O)NCCc6ccncc6)ccn5)CC4)CC3)n21 [compound 144]
5,9.54,CC(NC(=O)c1ccnc(C2(NC(=O)C3(NC(=O)c4cnc5n4[C@](C)(Cc4ccc(C#N)cc4)C(=O)N5c4cc(Cl)cc(Cl)c4)CC3)CC2)c1)c1ccccn1 (stereo partly drawn) [compound 149]
6,9.09,CC(CO)NC(=O)c1cccc(C2(NC(=O)C3(NC(=O)c4cnc5n4[C@](C)(Cc4ccc(C#N)cc4)C(=O)N5c4cc(Cl)cc(Cl)c4)CC3)CC2)n1 (stereo partly drawn) [compound 150]
7,8.89,CC(NC(=O)c1cccc(C2(NC(=O)C3(NC(=O)c4cnc5n4[C@](C)(Cc4ccc(C#N)cc4)C(=O)N5c4cc(Cl)cc(Cl)c4)CC3)CC2)n1)c1ccncc1 (stereo partly drawn) [compound 151]
8,9.13,CC(NC(=O)c1ccc(C2(NC(=O)C3(NC(=O)c4cnc5n4[C@](C)(Cc4ccc(C#N)cc4)C(=O)N5c4cc(Cl)cc(Cl)c4)CC3)CC2)nc1)c1ccccn1 (stereo partly drawn) [compound 155]
9,9.28,CN1CCN(C(=O)c2cccc(C3(NC(=O)C4(NC(=O)c5cnc6n5[C@](C)(Cc5ccc(C#N)cc5)C(=O)N6c5cc(Cl)cc(Cl)c5)CC4)CC3)n2)CC1 [compound 157]
10,9.43,CC(NC(=O)c1ccc(C2(NC(=O)C3(NC(=O)c4cnc5n4[C@](C)(Cc4ccc(C#N)cc4)C(=O)N5c4cc(Cl)cc(Cl)c4)CC3)CC2)nc1)c1ccccn1 (stereo partly drawn) [compound 160]
11,8.64,C[C@@]1(Cc2ccc(C#N)cc2)C(=O)N(c2cc(Cl)cc(Cl)c2)c2ncc(C(=O)NC3(C(=O)NC4(c5cccc(C(=O)NCc6cccnc6)n5)CC4)CC3)n21 [compound 162]
12,9.52,C[C@H](NC(=O)c1cccc(C2(NC(=O)C3(NC(=O)c4cnc5n4[C@](C)(Cc4ccc(C#N)cc4)C(=O)N5c4cc(Cl)cc(Cl)c4)CC3)CC2)n1)c1ccccc1 [compound 165]
13,9.39,CC(C)(NC(=O)c1cccc(C2(NC(=O)C3(NC(=O)c4cnc5n4[C@](C)(Cc4ccc(C#N)cc4)C(=O)N5c4cc(Cl)cc(Cl)c4)CC3)CC2)n1)c1ccccc1 [compound 167]
14,8.60,C[C@@]1(Cc2ccc(C#N)cc2)C(=O)N(c2cc(Cl)cc(Cl)c2)c2ncc(C(=O)NC3(C(=O)NC4(c5ccc(C(=O)NCCc6ccncc6)cn5)CC4)CC3)n21 [compound 169]

# Second part, the compound before the results:
row,Structure (SMILES),pIC50
1,C[C@@]1(Cc2ccc(C#N)cc2)C(=O)N(c2cc(Cl)cc(Cl)c2)c2ncc(C(=O)NC3(C(=O)NC4(c5ccc(C(=O)N6CC[C@H](O)C6)cn5)CC4)CC3)n21 [compound 130],9.13
2,C[C@@]1(Cc2ccc(C#N)cc2)C(=O)N(c2cc(Cl)cc(Cl)c2)c2ncc(C(=O)NC3(C(=O)NC4(c5cc(C(=O)NCC(=O)O)ccn5)CC4)CC3)n21 [compound 131],9.35
3,CC(=O)NCCNC(=O)c1ccnc(C2(NC(=O)C3(NC(=O)c4cnc5n4[C@](C)(Cc4ccc(C#N)cc4)C(=O)N5c4cc(Cl)cc(Cl)c4)CC3)CC2)c1 [compound 132],9.43
4,C[C@@]1(Cc2ccc(C#N)cc2)C(=O)N(c2cc(Cl)cc(Cl)c2)c2ncc(C(=O)NC3(C(=O)NC4(c5ccc(C(=O)NCC(O)CO)cn5)CC4)CC3)n21 (stereo partly drawn) [compound 133],8.85
5,C[C@@]1(Cc2ccc(C#N)cc2)C(=O)N(c2cc(Cl)cc(Cl)c2)c2ncc(C(=O)NC3(C(=O)NC4(c5ccc(C(=O)NCCc6ccccc6)cn5)CC4)CC3)n21 [compound 134],8.66
6,C[C@@]1(Cc2ccc(C#N)cc2)C(=O)N(c2cc(Cl)cc(Cl)c2)c2ncc(C(=O)NC3(C(=O)NC4(c5cc(C(=O)N6CCCC6)ccn5)CC4)CC3)n21 [compound 135],9.10
7,C[C@@]1(Cc2ccc(C#N)cc2)C(=O)N(c2cc(Cl)cc(Cl)c2)c2ncc(C(=O)NC3(C(=O)NC4(c5ccc(C(=O)N6CCCCC6CO)cn5)CC4)CC3)n21 (stereo partly drawn) [compound 137],9.17
8,CCN(CC)C(=O)c1ccnc(C2(NC(=O)C3(NC(=O)c4cnc5n4[C@](C)(Cc4ccc(C#N)cc4)C(=O)N5c4cc(Cl)cc(Cl)c4)CC3)CC2)c1 [compound 138],9.17
9,C[C@H](CO)NC(=O)c1ccc(C2(NC(=O)C3(NC(=O)c4cnc5n4[C@](C)(Cc4ccc(C#N)cc4)C(=O)N5c4cc(Cl)cc(Cl)c4)CC3)CC2)nc1 [compound 141],9.10
10,C[C@@]1(Cc2ccc(C#N)cc2)C(=O)N(c2cc(Cl)cc(Cl)c2)c2ncc(C(=O)NC3(C(=O)NC4(c5cc(C(=O)NCC6CC6)ccn5)CC4)CC3)n21 [compound 142],8.89
11,C[C@@]1(Cc2ccc(C#N)cc2)C(=O)N(c2cc(Cl)cc(Cl)c2)c2ncc(C(=O)NC3(C(=O)NC4(c5cccc(C(=O)N6CCOCC6)n5)CC4)CC3)n21 [compound 145],9.25
12,CC(O)CNC(=O)c1ccnc(C2(NC(=O)C3(NC(=O)c4cnc5n4[C@](C)(Cc4ccc(C#N)cc4)C(=O)N5c4cc(Cl)cc(Cl)c4)CC3)CC2)c1 (stereo partly drawn) [compound 146],9.01
13,C[C@@]1(Cc2ccc(C#N)cc2)C(=O)N(c2cc(Cl)cc(Cl)c2)c2ncc(C(=O)NC3(C(=O)NC4(c5ccc(C(=O)N6CCC(C(N)=O)CC6)cn5)CC4)CC3)n21 [compound 147],8.72
14,C[C@@]1(Cc2ccc(C#N)cc2)C(=O)N(c2cc(Cl)cc(Cl)c2)c2ncc(C(=O)NC3(C(=O)NC4(c5ccc(C(N)=O)cn5)CC4)CC3)n21 [compound 148],8.85
15,CC(C)(NC(=O)c1ccc(C2(NC(=O)C3(NC(=O)c4cnc5n4[C@](C)(Cc4ccc(C#N)cc4)C(=O)N5c4cc(Cl)cc(Cl)c4)CC3)CC2)nc1)c1ccccc1 [compound 152],9.21
16,C[C@@]1(Cc2ccc(C#N)cc2)C(=O)N(c2cc(Cl)cc(Cl)c2)c2ncc(C(=O)NC3(C(=O)NC4(c5ccc(C(=O)N6CCN(S(C)(=O)=O)CC6)cn5)CC4)CC3)n21 [compound 153],8.82
17,CN(CCO)C(=O)c1ccc(C2(NC(=O)C3(NC(=O)c4cnc5n4[C@](C)(Cc4ccc(C#N)cc4)C(=O)N5c4cc(Cl)cc(Cl)c4)CC3)CC2)nc1 [compound 154],9.00
18,CN1CCN(C(=O)c2ccnc(C3(NC(=O)C4(NC(=O)c5cnc6n5[C@](C)(Cc5ccc(C#N)cc5)C(=O)N6c5cc(Cl)cc(Cl)c5)CC4)CC3)c2)CC1 [compound 156],8.96
19,CC(=O)NC1CCN(C(=O)c2ccc(C3(NC(=O)C4(NC(=O)c5cnc6n5[C@](C)(Cc5ccc(C#N)cc5)C(=O)N6c5cc(Cl)cc(Cl)c5)CC4)CC3)nc2)C1 (stereo partly drawn) [compound 158],9.05
20,C[C@@]1(Cc2ccc(C#N)cc2)C(=O)N(c2cc(Cl)cc(Cl)c2)c2ncc(C(=O)NC3(C(=O)NC4(c5cc(C(=O)NCCn6ccnc6)ccn5)CC4)CC3)n21 [compound 159],9.38
21,C[C@@]1(Cc2ccc(C#N)cc2)C(=O)N(c2cc(Cl)cc(Cl)c2)c2ncc(C(=O)NC3(C(=O)NC4(c5cccc(C(=O)N6CCCC(CO)C6)n5)CC4)CC3)n21 (stereo partly drawn) [compound 161],9.12
22,C[C@@]1(Cc2ccc(C#N)cc2)C(=O)N(c2cc(Cl)cc(Cl)c2)c2ncc(C(=O)NC3(C(=O)NC4(c5ccc(C(=O)N6CCC[C@@H]6C(N)=O)cn5)CC4)CC3)n21 [compound 163],9.19
23,C[C@@]1(Cc2ccc(C#N)cc2)C(=O)N(c2cc(Cl)c(F)c(Cl)c2)c2ncc(C(=O)NC3(C(=O)NC4(c5ccc(C(N)=O)cn5)CC4)CC3)n21 [compound 164],9.09
24,C[C@@H](NC(=O)c1ccnc(C2(NC(=O)C3(NC(=O)c4cnc5n4[C@](C)(Cc4ccc(C#N)cc4)C(=O)N5c4cc(Cl)cc(Cl)c4)CC3)CC2)c1)C(N)=O [compound 166],8.52
25,C[C@@]1(Cc2ccc(C#N)cc2)C(=O)N(c2cc(Cl)cc(Cl)c2)c2ncc(C(=O)NC3(C(=O)NC4(c5cc(C(=O)N6CC[C@@H](O)C6)ccn5)CC4)CC3)n21 [compound 168],8.47
26,C[C@@]1(Cc2ccc(C#N)cc2)C(=O)N(c2cc(Cl)cc(Cl)c2)c2ncc(C(=O)NC3(C(=O)NC4(c5cccc(C(=O)N6CCC(C(N)=O)CC6)n5)CC4)CC3)n21 [compound 170],9.55
27,CC(=O)N1CCN(C(=O)c2ccc(C3(NC(=O)C4(NC(=O)c5cnc6n5[C@](C)(Cc5ccc(C#N)cc5)C(=O)N6c5cc(Cl)cc(Cl)c5)CC4)CC3)nc2)CC1 [compound 171],8.89
28,C[C@@]1(Cc2ccc(C#N)cc2)C(=O)N(c2cc(Cl)cc(Cl)c2)c2ncc(C(=O)NC3(C(=O)NC4(c5cc(C(=O)NCC(N)=O)ccn5)CC4)CC3)n21 [compound 172],9.08
